Results as given in ChEMBL document CHEMBL1143657, “Saucerneol B derivatives as human acyl-CoA: cholesterol acyltransferase inhibitors” (Bioorg Med Chem Lett, 2005).

Key:
[1] = molecular target: T1, Sterol O-acyltransferase 2 (Homo sapiens) (UniProt O75908); experiment: In vitro inhibition of human Acyl coenzyme A:cholesterol acyltransferase 2 expressed in Hi5 cells at 125 uM; settings: BTI-TN-5B1-4
T1 sequence (whole entry): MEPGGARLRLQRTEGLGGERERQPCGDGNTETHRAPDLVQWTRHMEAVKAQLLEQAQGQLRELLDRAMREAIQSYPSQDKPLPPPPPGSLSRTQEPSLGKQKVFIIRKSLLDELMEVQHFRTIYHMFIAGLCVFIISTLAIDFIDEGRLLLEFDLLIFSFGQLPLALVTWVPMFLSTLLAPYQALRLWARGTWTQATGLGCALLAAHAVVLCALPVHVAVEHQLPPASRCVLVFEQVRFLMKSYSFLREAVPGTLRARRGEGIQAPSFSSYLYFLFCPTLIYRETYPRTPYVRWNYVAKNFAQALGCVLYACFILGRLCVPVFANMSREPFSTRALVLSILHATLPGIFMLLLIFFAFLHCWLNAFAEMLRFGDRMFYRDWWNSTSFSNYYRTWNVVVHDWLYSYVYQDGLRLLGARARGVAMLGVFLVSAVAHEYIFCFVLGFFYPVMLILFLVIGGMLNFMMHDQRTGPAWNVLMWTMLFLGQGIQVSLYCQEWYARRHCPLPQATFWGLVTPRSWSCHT

[2] = molecular target: T2, Sterol O-acyltransferase 2 (Homo sapiens, UniProt O75908); experiment: In vitro inhibitory concentration against human Acyl coenzyme A:cholesterol acyltransferase 2 expressed in Hi5 cells; parameters: species or system BTI-TN-5B1-4
T2 sequence (O75908 whole entry): T1 sequence (whole entry)

[3] = molecular target: T3, Sterol O-acyltransferase 1 (Homo sapiens) (UniProt P35610); experiment: In vitro inhibition of human Acyl coenzyme A:cholesterol acyltransferase 1 expressed in Hi5 cells; settings: BTI-TN-5B1-4, concentration not given here
T3 sequence (whole entry): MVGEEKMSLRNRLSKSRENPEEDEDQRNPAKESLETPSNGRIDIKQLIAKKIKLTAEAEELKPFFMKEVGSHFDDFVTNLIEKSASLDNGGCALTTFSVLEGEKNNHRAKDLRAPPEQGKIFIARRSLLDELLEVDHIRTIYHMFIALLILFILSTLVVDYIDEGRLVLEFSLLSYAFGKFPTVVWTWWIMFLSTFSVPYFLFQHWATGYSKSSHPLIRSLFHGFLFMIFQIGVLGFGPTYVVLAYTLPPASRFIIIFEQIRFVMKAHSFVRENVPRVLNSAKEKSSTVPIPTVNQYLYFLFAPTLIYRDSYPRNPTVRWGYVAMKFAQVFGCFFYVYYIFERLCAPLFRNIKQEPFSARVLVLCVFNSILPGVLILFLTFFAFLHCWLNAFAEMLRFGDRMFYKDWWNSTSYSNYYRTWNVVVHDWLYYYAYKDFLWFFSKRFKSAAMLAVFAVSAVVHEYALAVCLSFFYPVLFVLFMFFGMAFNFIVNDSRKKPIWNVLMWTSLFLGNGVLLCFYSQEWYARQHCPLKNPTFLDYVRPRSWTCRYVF

SMILES	inhibition [1]	IC50 [2]	inhibition [3]
CCCCCCOC(c1ccc2c(c1)OCO2)C(OC)Oc1ccc([C@H]2O[C@@H](c3ccc(OC)c(OC)c3)[C@@H](C)[C@H]2C)cc1OC (some centres not stated)	33%	–	–
COc1ccc(C(O)C(C)Oc2ccc([C@H]3O[C@H](c4ccc(OC(C)C(O)c5ccc(OC)c(OC)c5)c(OC)c4)[C@H](C)[C@H]3C)cc2OC)cc1OC (some centres not stated)	–	8 µM	–
CCCCCCCCOC(c1ccc2c(c1)OCO2)C(OC)Oc1ccc([C@H]2O[C@@H](c3ccc(OC)c(OC)c3)[C@@H](C)[C@H]2C)cc1OC (some centres not stated)	19%	–	44%
CCCCCOC(c1ccc2c(c1)OCO2)C(OC)Oc1ccc([C@H]2O[C@@H](c3ccc(OC)c(OC)c3)[C@@H](C)[C@H]2C)cc1OC (some centres not stated)	33%	–	–
CCCCCCCOC(c1ccc2c(c1)OCO2)C(OC)Oc1ccc([C@H]2O[C@@H](c3ccc(OC)c(OC)c3)[C@@H](C)[C@H]2C)cc1OC (some centres not stated)	26%	–	–
CCCCCCCCCOC(c1ccc2c(c1)OCO2)C(OC)Oc1ccc([C@H]2O[C@@H](c3ccc(OC)c(OC)c3)[C@@H](C)[C@H]2C)cc1OC (some centres not stated)	10%	–	25%

Next, values leading:

inhibition [1]	IC50 [2]	inhibition [3]	SMILES
33%	–	–	CCCOC(c1ccc2c(c1)OCO2)C(OC)Oc1ccc([C@H]2O[C@@H](c3ccc(OC)c(OC)c3)[C@@H](C)[C@H]2C)cc1OC (some centres not stated)
45%	–	–	COc1ccc([C@@H]2O[C@H](c3ccc(OC(OC)C(OC)c4ccc5c(c4)OCO5)c(OC)c3)[C@H](C)[C@@H]2C)cc1OC (some centres not stated)
29%	–	–	CCOC(c1ccc2c(c1)OCO2)C(OC)Oc1ccc([C@H]2O[C@@H](c3ccc(OC)c(OC)c3)[C@@H](C)[C@H]2C)cc1OC (some centres not stated)
28%	–	–	CCCCOC(c1ccc2c(c1)OCO2)C(OC)Oc1ccc([C@H]2O[C@@H](c3ccc(OC)c(OC)c3)[C@@H](C)[C@H]2C)cc1OC (some centres not stated)
